The test system of data set [1] is vimentin promoter activity. Put plainly: VimPro-GFP reporter 3D high-content imaging in tumor organoids. It counts as cell-based, human. Conditions: 72 h. The protocol:
After validating hits 5-7 against CHD1L mediated TCF transcription, the ability of these compounds to reverse EMT and other malignant properties in CRC were evaluated. E-cadherin and vimentin are putative biomarkers for the epithelial and mesenchymal phenotypes, respectively. [McDonald et al., 2015] Loss of E-cadherin and gain of vimentin are also clinical biomarkers of poor prognosis. [Yun et al., 2014; Richardson et al., 2012; Dhanasekaran et al., 2001; Kashiwagi et al., 2010; Toiyama et al., 2013] Accordingly, lentiviral promoter driven reporters for E-cadherin (pCDH1-EcadPro-RFP) and vimentin (pCDH1-VimPro-GFP) were developed, which faithfully report E-cadherin and vimentin protein expression, respectively. [Zhou et al., 2016; Abraham et al., 2019] SW620 cells transduced with either EcadPro-RFP or VimPro-GFP were cultured as tumor organoids for 72 h, reaching a diameter of 600 μm. Tumor organoids were treated with compounds 5-7 for an additional 72 h to determine the effective concentration 50 percent (EC50) for modulating promoter activity. Changes in promoter expression was quantified using a 3D confocal image […] based high-content analysis algorithm (FIG. 2A-2B). [Zhou et al., 2016; Abraham et al., 2019]
Stable VimPro-GFP or EcadPro-RFP SW620 reporter cells were generated using pCDH imPro-GFP-EF1-puro virus or pCDH-EcadPro-mCherry-EF1-puro virus as previously reported. [Zhou et al., 2016; Abraham et al., 2019] The stable fluorescently labeled reporter cells were used to generate tumor organoids as described herein. Tumor organoids were treated with CHD1L inhibitors at 10 μM for an additional 72 h. Following treatment, tumor organoids were stained with 16 μM of Hoechst 33342 for 1 h (nuclei stain). Images were taken with a 5× air objective. Z-stacks were set at 26.5 μm apart for a total of 15 optical slices. Imaging and high-content analysis were performed using an Opera Phenix™ and Harmony® software (PerkinElmer, Hopkinton, Mass.). Nuclei were identified within each layer and cells were found with either GFP or mCherry channel. The fluorescence intensities of each channel were calculated and thresholds were set based on the background intensities. Percentages of GFP or mCherry RFP positive cells were calculated and normalized to the DMSO treated group.
3D High-Content Imaging and Analysis of EMT Dual-Reporter Activity. Tumor organoids were imaged using the Opera Phenix high-content screening system (PerkinElmer) in confocal mode utilizing a 10× air objective (NA 0.3). […] Organoids were also imaged in Brightfield to segment and perform high-content analysis of dual reporter specific fluorescence intensity. […] Both fluorescent signals were quantified and normalized as previously described. […]

The nature of data set [2]: Mouse liver microsome stability. Conditions: CD-1, mouse, liver microsomes; for half-life: female, initial study.
Another data set relates to HCT116 cells. Put plainly: Invasion assay (scratch wound in Matrigel). It counts as cell-based, human. Conditions: 50% Matrigel, 48-72 h. The procedure: A hallmark of EMT is an increase in CSC stemness and cell invasion. Therefore, the ability of compounds 5-7 to inhibit migration and invasion in HCT-116 and DLD1^CHD1L-OE cells was tested. […] Note that DLD1^CHD1L-OE cells form two times more colonies than HCT-116 cells, which have moderate CHD1L expression. This observation is consistent with CHD1L's oncogenic and tumorigenic properties. Next, using HCT-116 cells with uniform scratch wounds imbedded in 50% Matrigel® matrix (Corning Life Sciences, Corning, N.Y.) cells were treated with CHD1L inhibitors at concentrations indicated and invasion was monitored over 72 h.
HCT116 cells were plated at 60,000 cells/well into an IncuCyte® ImageLock 96-well plate (Sartorius, France) and allowed to attach overnight. A wound was created in all wells using the IncuCyte® WoundMaker then washed 2× with PBS. The plate was brought to 4° C. using a Corning XT Cool Core to avoid polymerization of the Matrigel® matrix (Corning Life Sciences, Corning, N.Y.) during the preparation of the invasion conditions. Wells were coated with 50 μL of 50% Matrigel® matrix in RPMI-1640 media. Plates were centrifuged at 150 rpm at 4° C. for 3 min, using a swing bucket rotor to ensure even matrix coating with no air bubbles. […]

Another data set deals with HCT116 tumor organoids. Put plainly: Tumor organoid cytotoxicity (CellTiter-Glo 3D). It counts as cell-based, human. Conditions: Homo sapiens. The protocol:
(§1) Cell based cytotoxicity dose response and combination studies. […] Plates were then incubated for 3 days before treatment.
Cell Line Tumor Organoid Culture.
Tumor Organoid Cytotoxicity.

For another data set, the system named is SW620 tumor organoids. Put plainly: Synergy studies with SN38 (LOEWE synergy scores). The arrangement: key to LOEWE Synergy Score: % response beyond expectation; <-10 antagonism, -10–10 additive, >10 synergy. It counts as cell-based, human. Conditions: for LOEWE Synergy Score: compound at its IC50 (6: 5 μM; 6.3, 6.11: 3 μM). The protocol: as §1
(e.g., synergy score 20 corresponds to 20% of response beyond expectation). According to our experience, the synergy scores near 0 gives limited confidence on synergy or antagonism.
When the synergy score is: • Less than −10: the interaction between two drugs is likely to be antagonism; • From −10 to 10: the interaction between two drugs is likely to be additivity; • Larger than 10: the interaction between two drugs is likely to be synergy.

Where [3] appears, read: HCT-116, single agent, Table 4A, read-out: Tumor Organoid Cytotoxicity IC50 (μM) HCT116.

Where two headings read alike, the source gives them in different places. Where only a bound is given, the exact number is not on record here.

One may read the EC50 as the concentration needed to bring the measured effect to its halfway point. With `COc1ccc(-c2nc(S(=O)(=O)c3ccccc3)c(S(C)(=O)=O)o2)cc1` [Compound 5], the EC50 in data set [1] (Homo sapiens, SW-620, read-out: EC50 downregulation of vimentin promoter activity, SW620 tumor organoids) is 15.6 ± 1.7 µM.

In general, half-life refers to how long it takes for the measured level to halve. As usually defined, the IC50 is the point on the concentration scale where inhibition reaches its midpoint. As for `Cc1cc(Nc2ccc(NC(=O)Cc3cccs3)cc2)nc(N2CCCC2)n1` [Compound 6, N-(4-((6-methyl-2-(pyrrolidin-1-yl)pyrimidin-4-yl)amino)phenyl)-2-(thiophen-2-yl)acetamide], the half-life in data set [2] (Microsomal Half-life (min), female CD-1 mouse microsomes) is 17 min; in data set [2] (half-life in liver microsomes), < 20 min. For the same molecule, the “inhibition of invasion, in words” value in the data set with HCT116 cells (listed as 6.0) is on record as “most potent activity”. In the data set with HCT116 tumor organoids (setting [3]), the IC50 was 4.93 µM. The “LOEWE Synergy Score” value with SW620 tumor organoids (SN38 0.64 nM) is −5; with SW620 tumor organoids (SN38 16 nM) it was 35; in the data set on SW620 tumor organoids (SN38 80 nM) it was 45; in the data set on SW620 tumor organoids (SN38 400 nM), 41; in the data set on SW620 tumor organoids (SN38 2000 nM), 28; with SW620 tumor organoids (SN38 10000 nM), 16. In addition, in the data set on SW620 tumor organoids (SN38 […]), the “LOEWE Synergy Score” value turned out to be 36. In addition, in the data set with SW620 tumor organoids (killing SW620 tumor organoids), the “synergism with irinotecan (and SN38), in words” value was “synergism”.

On to `Cc1cc(Nc2ccc(NC(=O)c3c[nH]c4ccccc34)cc2)nc(N2CCCC2)n1` [Compound 6.3, N-(4-((6-methyl-2-(pyrrolidin-1-yl)pyrimidin-4-yl)amino)phenyl)-1H-indole-3-carboxamide], for which, in data set [2] (pH 7.4, in vitro liver microsome half-life, second series, different liver microsome preparation), the half-life at 10 μM worked out at 98 min. The “downregulation of vimentin promoter activity (VimPro-GFP), in words” value in data set [1] (SW620 or HCT116 tumor organoids) is given as “downregulation of vimentin”. In the data set on HCT116 cells, the “inhibition of invasion, in words” value is given as “significantly inhibits HCT116 invasive potential”. In addition, the IC50 was found to be 3.7 µM in the data set with HCT116 tumor organoids (HCT-116, 72 h, Table 6, read-out: 3 D Cytotoxicity 72 hr IC50 (μM) HCT116) and 3.72 µM in the data set with HCT116 tumor organoids (setting [3]). The “LOEWE Synergy Score” value came to 4 with SW620 tumor organoids (SN38 0.64 nM); 36 in the data set on SW620 tumor organoids (SN38 16 nM); 54 in the data set with SW620 tumor organoids (SN38 80 nM); 48 in the data set on SW620 tumor organoids (SN38 400 nM); 35 with SW620 tumor organoids (SN38 2000 nM); 25 in the data set with SW620 tumor organoids (SN38 10000 nM). Besides, in the data set with SW620 tumor organoids (SN38 […]), the “LOEWE Synergy Score” value turned out to be 31. Besides, the “potency of SN38 combination relative to SN38 alone” value with SW620 tumor organoids (killing SW620 tumor organoids) is 150 fold. Also, in the data set with SW620 tumor organoids (killing SW620 tumor organoids), the “synergism with irinotecan (and SN38), in words” value is given as “synergism”.

For the origin of these results see patent publication US20230103444A1 (The Regents of the University of Colorado, a Body Corporate, priority 2020, published 2023).
